Measured values reported in publication PMC12677699, “Utilizing Proteolytic‐Resistant Nano‐Short Peptide Based on Naphthyl Tail‐Anchored to Combat Bacterial Infections” (Advanced Science, 2025).
≈ marks a conversion by molar mass, not a printed value. Non-standard residues stand in square brackets, D forms with d. Residues, ends and D or L forms follow the SMILES beside them. ξ: configuration not given here. 2Nal = N[C@@H](Cc1ccc2ccccc2c1)C(=O)O; Ahp(2) = CCCCC[C@H](N)C(=O)O; ξAhp(2) = CCCCCC(N)C(=O)O

What was measured:
E. faecalis 29212 = format: cell-based, Enterococcus faecalis
Procedure: (§1) The MIC values of the nano‐short peptides were determined according to standard protocols.^[ [63] ^] Bacterial strains were revived from cryopreservation and cultured in Mueller–Hinton broth (MHB) to logarithmic growth phase, then diluted to a final density of 0.5–1 × 10⁶ CFU mL^−1. Serial dilutions of the nano‐short peptides were prepared in 0.2% bovine serum albumin (BSA) using a 96‐well plate format. Equal volumes of peptide solutions and bacterial suspensions were combined and incubated at 37 °C for 20–22 h. Bacterial growth was assessed by measuring absorbance at 492 nm, with MHB alone (negative control) and untreated bacterial suspension (positive control) included for reference.

E. coli UB1005 = format: cell-based, Escherichia coli
Procedure: as §1

E. coli 25922 = format: cell-based, Escherichia coli
Procedure: as §1

E. coli 078 = format: cell-based, Escherichia coli
Procedure: as §1

[1] = Critical aggregation concentration, 1,8-ANS fluorescence; format: physicochemical; conditions: 1,8-ANS 1 × 10^−6 M, peptide 2-256 × 10^−6 M in deionized water, 1 h, ex 360 nm, em 420–670 nm, linear fitting of fluorescence intensities
Procedure: The self‐assembly behavior of nano‐short peptides was characterized by determining the CAC using 1,8‐ANS as a hydrophobic fluorescent probe.^[ [32] ^] Serial peptide dilutions (2‐256 × 10^−6 M in 50 µL deionized water) were prepared in 96‐well plates. 1,8‐ANS powder was solubilized in dimethylformamide (DMF) and added to the 96‐well plates (final concentration of 1 × 10^−6 M), and deionized water solution containing 1,8‐ANS was used as a blank control. After incubation for 1 h, the fluorescence emission spectra were continuously monitored with a microplate reader (Tecan Infinite200 Pro, λ excitation = 360 nm, λ emission = 420–670 nm). CAC values were determined by linear fitting of representative fluorescence intensities.

S. epidermidis 12228 = format: cell-based, Staphylococcus epidermidis
Procedure: as §1

P. aeruginosa 27853 = format: cell-based, Pseudomonas aeruginosa
Procedure: as §1

P. aeruginosa PAO1 = format: cell-based, Pseudomonas aeruginosa
Procedure: as §1

S. pullorum C7913 = format: cell-based
Procedure: as §1

S. aureus 25923 = format: cell-based, Staphylococcus aureus
Procedure: as §1

S. aureus 29213 = format: cell-based, Staphylococcus aureus
Procedure: as §1

S. typhimurium 14028 = format: cell-based, Salmonella typhimurium
Procedure: as §1

S. typhimurium 7731 = format: cell-based, Salmonella typhimurium
Procedure: as §1

MRSA 43300 = format: cell-based, Methicillin-Resistant Staphylococcus aureus
Procedure: as §1

A. baumannii AB1902 = assay: MIC against clinical strain; format: cell-based; conditions: Acinetobacter baumannii, AB1902, read-out: MIC, A. baumannii AB1902
Procedure: as §1

A. baumannii AB1901 = assay: MIC against clinical strain; format: cell-based; conditions: Acinetobacter baumannii, AB1901, read-out: MIC, A. baumannii AB1901
Procedure: as §1

S. aureus 11011 = assay: MIC against clinical strain; format: cell-based; conditions: Staphylococcus aureus, 11011, read-out: MIC, S. aureus 11011
Procedure: as §1

P. aeruginosa 25349 = assay: MIC against clinical strain; format: cell-based; conditions: Pseudomonas aeruginosa, 25349, read-out: MIC, P. aeruginosa 25349
Procedure: as §1

| Compound | MIC, E. faecalis 29212 (E. faecalis 29212) [µM] | MIC, E. coli UB1005 (E. coli UB1005) [µM] | MIC, E. coli 25922 (E. coli 25922) [µM] | MIC, E. coli 078 (E. coli 078) [µM] | critical aggregation concentration (CAC) [1] [µM] | MIC, S. epidermidis 12228 (S. epidermidis 12228) [µM] | MIC, P. aeruginosa 27853 (P. aeruginosa 27853) [µM] | MIC, P. aeruginosa PAO1 (P. aeruginosa PAO1) [µM] | MIC, S. pullorum C7913 (S. pullorum C7913) [µM] | MIC, S. aureus 25923 (S. aureus 25923) [µM] | MIC, S. aureus 29213 (S. aureus 29213) [µM] | MIC, S. typhimurium 14028 (S. typhimurium 14028) [µM] | MIC, S. typhimurium 7731 (S. typhimurium 7731) [µM] | MIC, MRSA 43300 (MRSA 43300) [µM] | MIC (A. baumannii AB1902) [µM] | MIC (A. baumannii AB1901) [µM] | MIC (S. aureus 11011) [µM] | MIC (P. aeruginosa 25349) [µM] |
| --- | --- | --- | --- | --- | --- | --- | --- | --- | --- | --- | --- | --- | --- | --- | --- | --- | --- | --- |
| CCCCC[C@H](NC(=O)[C@H](CCCCC)NC(=O)[C@H](CCCCC)NC(=O)[C@@H](N)CCCCC)C(=O)N[C@@H](CCCCC)C(=O)N[C@@H](CCCCC)C(=O)N[C@H](CCCNC(=N)N)C(=O)N[C@@H](CCCNC(=N)N)C(=O)N[C@@H](CCCNC(=N)N)C(=O)N1CCC[C@H]1C(=O)O [Peptide B6] (H-[Ahp(2)][Ahp(2)][Ahp(2)][Ahp(2)][Ahp(2)][Ahp(2)][dR]RRP-OH; N-terminus and C-terminus assumed) | 256 (≈ 345 µg/mL) | 256 (≈ 345 µg/mL) | 256 (≈ 345 µg/mL) | 256 (≈ 345 µg/mL) | 3.31 | 256 (≈ 345 µg/mL) | 256 (≈ 345 µg/mL) | 256 (≈ 345 µg/mL) | 256 (≈ 345 µg/mL) | 256 (≈ 345 µg/mL) | 256 (≈ 345 µg/mL) | 256 (≈ 345 µg/mL) | 256 (≈ 345 µg/mL) | 256 (≈ 345 µg/mL) |  |  |  |  |
| CCCCCC(N)C(=O)NC(CCCCC)C(=O)NC(CCCCC)C(=O)NC(CCCCC)C(=O)NC(CCCCC)C(=O)N[C@H](CCCNC(=N)N)C(=O)N[C@@H](CCCNC(=N)N)C(=O)N[C@@H](CCCNC(=N)N)C(=O)N1CCC[C@H]1C(=O)O (some centres unmarked) [Peptide B5] (H-[ξAhp(2)][ξAhp(2)][ξAhp(2)][ξAhp(2)][ξAhp(2)][dR]RRP-OH; N-terminus assumed) | 256 (≈ 312 µg/mL) | 256 (≈ 312 µg/mL) | 256 (≈ 312 µg/mL) | 256 (≈ 312 µg/mL) | 3.34 | 256 (≈ 312 µg/mL) | 256 (≈ 312 µg/mL) | 256 (≈ 312 µg/mL) | 128 (≈ 156 µg/mL) | 256 (≈ 312 µg/mL) | 256 (≈ 312 µg/mL) | 256 (≈ 312 µg/mL) | 256 (≈ 312 µg/mL) | 32 (≈ 39 µg/mL) |  |  |  |  |
| CC1COc2c(N3CCN(C)CC3)c(F)cc3c(=O)c(C(=O)O)cn1c23 (centres unmarked) [Ofloxacin] |  |  |  |  |  |  |  |  |  |  |  |  |  |  | 128 (≈ 46.3 µg/mL) | 1 (≈ 0.361 µg/mL) | 128 (≈ 46.3 µg/mL) | 2 (≈ 0.723 µg/mL) |
| CC(C)(O/N=C(\C(=O)N[C@@H]1C(=O)N2C(C(=O)[O-])=C(C[n+]3ccccc3)CS[C@H]12)c1csc(N)n1)C(=O)O [Ceftazidime] |  |  |  |  |  |  |  |  |  |  |  |  |  |  | 128 (≈ 70 µg/mL) | 8 (≈ 4.37 µg/mL) | 128 (≈ 70 µg/mL) | 32 (≈ 17.5 µg/mL) |
| N=C(N)NCCC[C@H](NC(=O)[C@H](Cc1ccc2ccccc2c1)NC(=O)[C@H](Cc1ccc2ccccc2c1)NC(=O)[C@H](Cc1ccc2ccccc2c1)NC(=O)[C@H](Cc1ccc2ccccc2c1)NC(=O)[C@@H](N)Cc1ccc2ccccc2c1)C(=O)N[C@H](CCCNC(=N)N)C(=O)N[C@@H](CCCNC(=N)N)C(=O)N1CCC[C@H]1C(=O)O [Peptide N5] (H-[2Nal][2Nal][2Nal][2Nal][2Nal]R[dR]RP-OH) | 256 (≈ 402 µg/mL) | 256 (≈ 402 µg/mL) | 256 (≈ 402 µg/mL) | 256 (≈ 402 µg/mL) | 11.66 | 256 (≈ 402 µg/mL) | 256 (≈ 402 µg/mL) | 256 (≈ 402 µg/mL) | 256 (≈ 402 µg/mL) | 256 (≈ 402 µg/mL) | 256 (≈ 402 µg/mL) | 256 (≈ 402 µg/mL) | 256 (≈ 402 µg/mL) | 256 (≈ 402 µg/mL) |  |  |  |  |
| CN[C@H](CC(C)C)C(=O)N[C@H]1C(=O)N[C@@H](CC(N)=O)C(=O)N[C@H]2C(=O)N[C@H]3C(=O)N[C@H](C(=O)N[C@H](C(=O)O)c4cc(O)cc(O)c4-c4cc3ccc4O)[C@H](O)c3ccc(c(Cl)c3)Oc3cc2cc(c3O[C@@H]2O[C@H](CO)[C@@H](O)[C@H](O)[C@H]2O[C@H]2C[C@](C)(N)[C@H](O)[C@H](C)O2)Oc2ccc(cc2Cl)[C@H]1O [Vancomycin] |  |  |  |  |  |  |  |  |  |  |  |  |  |  | 128 (≈ 186 µg/mL) | 1 (≈ 1.45 µg/mL) | 128 (≈ 186 µg/mL) | 128 (≈ 186 µg/mL) |
| NC[C@H]1O[C@H](O[C@H]2[C@H](O)[C@@H](O[C@H]3O[C@H](CO)[C@@H](O)[C@H](N)[C@H]3O)[C@H](N)C[C@@H]2N)[C@H](O)[C@@H](O)[C@@H]1O [Kanamycin] |  |  |  |  |  |  |  |  |  |  |  |  |  |  | 128 (≈ 62 µg/mL) | 128 (≈ 62 µg/mL) | 128 (≈ 62 µg/mL) | 128 (≈ 62 µg/mL) |
| CC1(C)S[C@@H]2[C@H](NC(=O)Cc3ccccc3)C(=O)N2[C@H]1C(=O)O [Penicillin sodium] |  |  |  |  |  |  |  |  |  |  |  |  |  |  | 128 | 128 | 128 | 128 |
| CC[C@H]1OC(=O)[C@H](C)[C@@H](O[C@H]2C[C@@](C)(OC)[C@@H](O)[C@H](C)O2)[C@H](C)[C@@H](O[C@@H]2O[C@H](C)C[C@H](N(C)C)[C@H]2O)[C@](C)(O)C[C@@H](C)C(=O)[C@H](C)[C@@H](O)[C@]1(C)O [Erythromycin] |  |  |  |  |  |  |  |  |  |  |  |  |  |  | 128 (≈ 93.9 µg/mL) | 64 (≈ 47 µg/mL) | 128 (≈ 93.9 µg/mL) | 128 (≈ 93.9 µg/mL) |
| N=C(N)NCCC[C@H](NC(=O)[C@H](Cc1ccc2ccccc2c1)NC(=O)[C@H](Cc1ccc2ccccc2c1)NC(=O)[C@H](Cc1ccc2ccccc2c1)NC(=O)[C@H](Cc1ccc2ccccc2c1)NC(=O)[C@H](Cc1ccc2ccccc2c1)NC(=O)[C@@H](N)Cc1ccc2ccccc2c1)C(=O)N[C@H](CCCNC(=N)N)C(=O)N[C@@H](CCCNC(=N)N)C(=O)N1CCC[C@H]1C(=O)O [Peptide N6] (H-[2Nal][2Nal][2Nal][2Nal][2Nal][2Nal]R[dR]RP-OH) | 256 (≈ 452 µg/mL) | 256 (≈ 452 µg/mL) | 256 (≈ 452 µg/mL) | 256 (≈ 452 µg/mL) | 6.65 | 256 (≈ 452 µg/mL) | 256 (≈ 452 µg/mL) | 256 (≈ 452 µg/mL) | 256 (≈ 452 µg/mL) | 256 (≈ 452 µg/mL) | 256 (≈ 452 µg/mL) | 256 (≈ 452 µg/mL) | 256 (≈ 452 µg/mL) | 256 (≈ 452 µg/mL) |  |  |  |  |
